From paper PMC9516332 (Frontiers in Oncology, 2022)
Like-named read-outs stand apart in the source and are kept apart here.

System: 134 cancer cell lines
Experiment: Cell viability assay (ATPlite, 72 hours), IC50 on cancer cell line panel

Question: `Cc1nc(NC(=O)N2CCC[C@H]2C(N)=O)sc1-c1ccnc(C(C)(C)C(F)(F)F)c1` [alpelisib] was tested. Which IC50 (HEC-6, read-out: IC50 in cell proliferation assay, HEC-6 cell line (EGFR p.A289V)) did it give?
Answer: The IC50 was 7.66 µM.

Question: What about the IC50 (Homo sapiens, 769-P, read-out: IC50 in cell proliferation assay, cell line 769-P) of the same compound?
Answer: Its IC50 is 14.3 µM.

Question: What about the IC50 (Homo sapiens, 786-0, read-out: IC50 in cell proliferation assay, cell line 786-O) of the same compound?
Answer: Its IC50 is over 31.6 µM.

Question: And the IC50 (Homo sapiens, A 172, read-out: IC50 in cell proliferation assay, cell line A-172)?
Answer: The IC50 was 19.6 µM.

Question: What about the IC50 (Homo sapiens, A204, read-out: IC50 in cell proliferation assay, cell line A-204) of the same compound?
Answer: The IC50 was 0.247 µM.

Question: What about the IC50 (Homo sapiens, A498, read-out: IC50 in cell proliferation assay, cell line A-498) of the same compound?
Answer: The IC50 was 14.4 µM.

Question: What about the IC50 (Homo sapiens, A549, read-out: IC50 in cell proliferation assay, cell line A-549) of the same compound?
Answer: Its IC50 is 9.89 µM.

Question: And the IC50 (Homo sapiens, A704, read-out: IC50 in cell proliferation assay, cell line A-704)?
Answer: Its IC50 is 27 µM.

Question: And the IC50 (Homo sapiens, A-375, read-out: IC50 in cell proliferation assay, cell line A-375 (BRAF p.V600E))?
Answer: The IC50 was 14.9 µM.

Question: And the IC50 (Homo sapiens, A-427, read-out: IC50 in cell proliferation assay, cell line A-427)?
Answer: The IC50 was 0.074 µM.

Question: What about the IC50 (Homo sapiens, ACHN, read-out: IC50 in cell proliferation assay, cell line ACHN) of the same compound?
Answer: The IC50 was 9.68 µM.

Question: What about the IC50 (Homo sapiens, AN3-CA, read-out: IC50 in cell proliferation assay, cell line AN3-CA (FGFR2 p.N549K)) of the same compound?
Answer: The IC50 was 0.697 µM.

Question: What about the IC50 (Homo sapiens, ASPC1, read-out: IC50 in cell proliferation assay, cell line AsPC-1) of the same compound?
Answer: Its IC50 is 8.97 µM.

Question: What about the IC50 (Homo sapiens, AU565, read-out: IC50 in cell proliferation assay, cell line AU565 (ERBB2 amplification)) of the same compound?
Answer: The IC50 was 1.56 µM.

Question: And the IC50 (Homo sapiens, BT-20, read-out: IC50 in cell proliferation assay, cell line BT-20)?
Answer: Its IC50 is 3.55 µM.

Question: And the IC50 (Homo sapiens, BT-474, read-out: IC50 in cell proliferation assay, cell line BT-474 (ERBB2 amplification))?
Answer: The IC50 was 3.2 µM.

Question: And the IC50 (Homo sapiens, BT-549, read-out: IC50 in cell proliferation assay, cell line BT-549)?
Answer: Its IC50 is 16.6 µM.

Question: What about the IC50 (Homo sapiens, BXPC-3, read-out: IC50 in cell proliferation assay, cell line BxPC-3) of the same compound?
Answer: The IC50 was 5.88 µM.

Question: And the IC50 (Homo sapiens, C-33-A, read-out: IC50 in cell proliferation assay, cell line C-33 A)?
Answer: Its IC50 is 25.1 µM.

Question: And the IC50 (Homo sapiens, CAL-27, read-out: IC50 in cell proliferation assay, cell line CAL-27)?
Answer: Its IC50 is 2.31 µM.

Question: What about the IC50 (Homo sapiens, CCF-STTG1, read-out: IC50 in cell proliferation assay, cell line CCF-STTG1) of the same compound?
Answer: The IC50 was over 31.6 µM.

Question: What about the IC50 (Homo sapiens, CCRF-CEM, read-out: IC50 in cell proliferation assay, cell line CCRF-CEM) of the same compound?
Answer: The IC50 was 4.28 µM.

Question: What about the IC50 (Homo sapiens, COLO 205, read-out: IC50 in cell proliferation assay, cell line COLO 205 (BRAF p.V600E)) of the same compound?
Answer: Its IC50 is 14.1 µM.

Question: And the IC50 (Homo sapiens, COLO-829, read-out: IC50 in cell proliferation assay, cell line COLO 829 (BRAF p.V600E))?
Answer: The IC50 was over 31.6 µM.

Question: What about the IC50 (Homo sapiens, DLD-1, read-out: IC50 in cell proliferation assay, cell line DLD-1) of the same compound?
Answer: The IC50 was 0.676 µM.

Question: What about the IC50 (Homo sapiens, DU-4475, read-out: IC50 in cell proliferation assay, cell line DU4475 (BRAF p.V600E)) of the same compound?
Answer: Its IC50 is 0.628 µM.

Question: And the IC50 (Homo sapiens, Daoy, read-out: IC50 in cell proliferation assay, cell line Daoy)?
Answer: Its IC50 is 9.36 µM.

Question: And the IC50 (Homo sapiens, DoTc2-4510, read-out: IC50 in cell proliferation assay, cell line DoTc2 4510)?
Answer: Its IC50 is 1.3 µM.

Question: What about the IC50 (Homo sapiens, EOL1, read-out: IC50 in cell proliferation assay, cell line EoL-1 (FIP1L1-PDGFRA)) of the same compound?
Answer: Its IC50 is 0.335 µM.

Question: And the IC50 (Homo sapiens, FaDu, read-out: IC50 in cell proliferation assay, cell line FaDu)?
Answer: Its IC50 is 1.71 µM.

Question: And the IC50 (Homo sapiens, G-361, read-out: IC50 in cell proliferation assay, cell line G-361 (BRAF p.V600E))?
Answer: The IC50 was 16.6 µM.

Question: What about the IC50 (Homo sapiens, HCC827, read-out: IC50 in cell proliferation assay, cell line HCC827 (EGFR exon19del)) of the same compound?
Answer: Its IC50 is 5.4 µM.

Question: What about the IC50 (Homo sapiens, HCC4006, read-out: IC50 in cell proliferation assay, cell line HCC4006 (EGFR exon19del)) of the same compound?
Answer: The IC50 was 4.56 µM.

Question: And the IC50 (Homo sapiens, HCT-15, read-out: IC50 in cell proliferation assay, cell line HCT 15)?
Answer: Its IC50 is 0.838 µM.

Question: What about the IC50 (Homo sapiens, HCT-116, read-out: IC50 in cell proliferation assay, cell line HCT 116) of the same compound?
Answer: Its IC50 is 6.31 µM.

Question: What about the IC50 (Homo sapiens, HEC-1, read-out: IC50 in cell proliferation assay, HEC-1 cell line) of the same compound?
Answer: The IC50 was 5.84 µM.

Question: And the IC50 (Homo sapiens, HEC-1B, read-out: IC50 in cell proliferation assay, HEC-1-B cell line (EGFR p.A864V))?
Answer: The IC50 was 0.943 µM.

Question: What about the IC50 (Homo sapiens, HL-60, read-out: IC50 in cell proliferation assay, HL-60 cell line) of the same compound?
Answer: The IC50 was 1.69 µM.

Question: And the IC50 (Homo sapiens, HT, read-out: IC50 in cell proliferation assay, HT cell line)?
Answer: The IC50 was 14.3 µM.

Question: And the IC50 (Homo sapiens, HT-1080, read-out: IC50 in cell proliferation assay, HT-1080 cell line)?
Answer: The IC50 was 0.314 µM.

Question: And the IC50 (Homo sapiens, Hs746T, read-out: IC50 in cell proliferation assay, Hs 746.T cell line (MET exon14skip + amplification))?
Answer: Its IC50 is 5.75 µM.

Question: What about the IC50 (Homo sapiens, Hs-578T, read-out: IC50 in cell proliferation assay, Hs 578T cell line) of the same compound?
Answer: The IC50 was 8.51 µM.

Question: What about the IC50 (Homo sapiens, HuTu80, read-out: IC50 in cell proliferation assay, HuTu 80 cell line) of the same compound?
Answer: The IC50 was 1.09 µM.

Question: What about the IC50 (Homo sapiens, J82, read-out: IC50 in cell proliferation assay, J82 cell line) of the same compound?
Answer: The IC50 was over 31.6 µM.

Question: What about the IC50 (Homo sapiens, Jurkat E6.1, read-out: IC50 in cell proliferation assay, Jurkat E6.1 cell line) of the same compound?
Answer: The IC50 was 12.9 µM.

Question: What about the IC50 (Homo sapiens, K562, read-out: IC50 in cell proliferation assay, K-562 cell line) of the same compound?
Answer: The IC50 was over 31.6 µM.

Question: And the IC50 (Homo sapiens, KATO III, read-out: IC50 in cell proliferation assay, KATO III cell line (FGFR2 amplification))?
Answer: The IC50 was 2.79 µM.

Question: What about the IC50 (Homo sapiens, KG-1, read-out: IC50 in cell proliferation assay, KG-1 cell line (FGFR1OP2-FGFR1)) of the same compound?
Answer: Its IC50 is 27.7 µM.

Question: What about the IC50 (Homo sapiens, KLE, read-out: IC50 in cell proliferation assay, KLE cell line) of the same compound?
Answer: The IC50 was 5.79 µM.

Question: And the IC50 (Homo sapiens, KMS-11, read-out: IC50 in cell proliferation assay, KMS-11 cell line (FGFR3 p.Y373C))?
Answer: Its IC50 is 1.53 µM.

Question: And the IC50 (Homo sapiens, KU812, read-out: IC50 in cell proliferation assay, Ku812 cell line)?
Answer: Its IC50 is 0.075 µM.

Question: What about the IC50 (Homo sapiens, Kasumi 1, read-out: IC50 in cell proliferation assay, Kasumi-1 cell line (KIT p.N822K)) of the same compound?
Answer: Its IC50 is 1.9 µM.

Question: And the IC50 (Homo sapiens, LC-2-ad, read-out: IC50 in cell proliferation assay, LC-2/ad cell line (CCDC6-RET))?
Answer: The IC50 was 4.5 µM.

Question: What about the IC50 (Homo sapiens, LNCaP-Clone-FGC, read-out: IC50 in cell proliferation assay, LNCaP clone FGC cell line) of the same compound?
Answer: Its IC50 is over 31.6 µM.

Question: What about the IC50 (Homo sapiens, LS174T, read-out: IC50 in cell proliferation assay, LS174T cell line) of the same compound?
Answer: Its IC50 is 1.9 µM.

Question: What about the IC50 (Homo sapiens, LS-411N, read-out: IC50 in cell proliferation assay, LS411N cell line (BRAF p.V600E)) of the same compound?
Answer: Its IC50 is 17.4 µM.

Question: What about the IC50 (Homo sapiens, LoVo, read-out: IC50 in cell proliferation assay, LoVo cell line) of the same compound?
Answer: Its IC50 is 20.5 µM.

Question: And the IC50 (Homo sapiens, MCF7, read-out: IC50 in cell proliferation assay, MCF-7 cell line)?
Answer: Its IC50 is 2.79 µM.

Question: And the IC50 (Homo sapiens, MDA-MB-231, read-out: IC50 in cell proliferation assay, MDA-MB-231 cell line)?
Answer: Its IC50 is over 31.6 µM.

Question: What about the IC50 (Homo sapiens, MDA-MB-453, read-out: IC50 in cell proliferation assay, MDA-MB-453 cell line) of the same compound?
Answer: Its IC50 is 6.03 µM.

Question: And the IC50 (Homo sapiens, MDA-MB-468, read-out: IC50 in cell proliferation assay, MDA-MB-468 cell line)?
Answer: The IC50 was 9.8 µM.

Question: What about the IC50 (Homo sapiens, MG-63, read-out: IC50 in cell proliferation assay, MG-63 cell line) of the same compound?
Answer: Its IC50 is 3.87 µM.

Question: What about the IC50 (Homo sapiens, MIA PaCa-2, read-out: IC50 in cell proliferation assay, MIA PaCa-2 cell line) of the same compound?
Answer: The IC50 was 10.7 µM.

Question: And the IC50 (Homo sapiens, MKN-45, read-out: IC50 in cell proliferation assay, MKN45 cell line (MET amplification))?
Answer: Its IC50 is 1.23 µM.

Question: What about the IC50 (Homo sapiens, MOLM-13, read-out: IC50 in cell proliferation assay, MOLM-13 cell line (FLT3 ITD)) of the same compound?
Answer: Its IC50 is 3.48 µM.

Question: And the IC50 (Homo sapiens, MOLT-4, read-out: IC50 in cell proliferation assay, MOLT-4 cell line)?
Answer: The IC50 was 0.701 µM.
